The values below come from BindingDB's records for doi:10.1021/jm00157a018 (1987).

SMILES strings stand for the structures. pKi: −log10 of the molar value. Residues, ends and D or L forms follow the SMILES beside them. *: point of attachment. X2 = O=C(N/N=C1/CC[C@@]2(O)[C@H]3Cc4ccc(O)c5c4[C@@]2(CCN3CC2CC2)[C@H]1O5)*; X1 = CN1CC[C@]23c4c5ccc(O)c4O[C@H]2/C(=N\NC(=O)*)CC[C@@]3(O)[C@H]1C5

The target in one assay is Mu-type opioid receptor (Cavia porcellus, UniProt P97266). Kind of assay: ChEBML_145291.
Chain of Mu-type opioid receptor (P97266 whole entry): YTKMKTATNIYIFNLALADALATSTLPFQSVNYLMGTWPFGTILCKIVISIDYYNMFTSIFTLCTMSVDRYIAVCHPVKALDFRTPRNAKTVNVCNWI
The pKi is the negative decadic logarithm of the Ki, by convention in mol/L. A high value points to a low Ki. The compound `CN1CCC23c4c5ccc(O)c4O[C@H]2C(=NNC(N)=O)CC[C@@]3(O)C1C5` (stereo partly drawn) gave a pKi of 7.82.

Biological target in a further assay: not listed separately
Kind of assay: Binding affinity against Opioid receptor delta 1 of guinea pig brain membranes using 1 nM of [3H]DADLE as radioligand.
`NC(=O)NN=C1CC[C@@]2(O)C3Cc4ccc(O)c5c4C2(CCN3CC2CC2)[C@H]1O5` (stereo partly drawn) had a negative logarithm of the Ki (pKi) of 8.43.

Turning to `CC[C@H](C)[C@H](NC(=O)[C@H](CCCNC(=N)N)NC(=O)[C@H](CCCNC(=N)N)NC(=O)[C@H](CC(C)C)NC(=O)[C@H](Cc1ccccc1)NC(=O)CNC(=O)CNC(=O)[C@@H](N)Cc1ccc(O)cc1)C(=O)OC`, the negative logarithm of the Ki (pKi) is 7.30.

Regarding `CC(C)CC(NC(=O)C(Cc1ccccc1)NC(=O)NN=C1CC[C@@]2(O)C3Cc4ccc(O)c5c4C2(CCN3C)[C@H]1O5)C(=O)O` (stereo partly drawn), the pKi was 8.19.

Turning to `CN1CCC23c4c5ccc(O)c4O[C@H]2C(=NNC(N)=O)CC[C@@]3(O)C1C5` (stereo partly drawn), the pKi was 7.16.

As for `CC(C)CC(NC(=O)C(Cc1ccccc1)NC(=O)NN=C1CC[C@@]2(O)C3Cc4ccc(O)c5c4C2(CCN3CC2CC2)[C@H]1O5)C(=O)O` (stereo partly drawn), the pKi was 8.51.

Consider `CC[C@H](C)[C@H](NC(=O)[C@H](CCCN=C(N)N)NC(=O)[C@H](CCCN=C(N)N)NC(=O)[C@H](CC(C)C)NC(=O)[C@H](Cc1ccccc1)NC(=O)N/N=C1/CC[C@@]2(O)[C@H]3Cc4ccc(O)c5c4[C@@]2(CCN3C)[C@H]1O5)C(=O)OC` (X1-FLRRI-OMe), for which the pKi was 7.62.

Regarding `CC[C@H](C)[C@H](NC(=O)[C@H](CCCN=C(N)N)NC(=O)[C@H](CCCN=C(N)N)NC(=O)[C@H](CC(C)C)NC(=O)[C@H](Cc1ccccc1)NC(=O)N/N=C1/CC[C@@]2(O)[C@H]3Cc4ccc(O)c5c4[C@@]2(CCN3CC2CC2)[C@H]1O5)C(=O)OC` (X2-FLRRI-OMe), the pKi was 8.24.
